For data set [1], the target named is T1, purified human ODC enzyme (Homo sapiens, UniProt P11926).
T1 construct: His6 (C); made in house; host or cells: E. coli BL21(DE3)
T1 sequence (P11926 1-461): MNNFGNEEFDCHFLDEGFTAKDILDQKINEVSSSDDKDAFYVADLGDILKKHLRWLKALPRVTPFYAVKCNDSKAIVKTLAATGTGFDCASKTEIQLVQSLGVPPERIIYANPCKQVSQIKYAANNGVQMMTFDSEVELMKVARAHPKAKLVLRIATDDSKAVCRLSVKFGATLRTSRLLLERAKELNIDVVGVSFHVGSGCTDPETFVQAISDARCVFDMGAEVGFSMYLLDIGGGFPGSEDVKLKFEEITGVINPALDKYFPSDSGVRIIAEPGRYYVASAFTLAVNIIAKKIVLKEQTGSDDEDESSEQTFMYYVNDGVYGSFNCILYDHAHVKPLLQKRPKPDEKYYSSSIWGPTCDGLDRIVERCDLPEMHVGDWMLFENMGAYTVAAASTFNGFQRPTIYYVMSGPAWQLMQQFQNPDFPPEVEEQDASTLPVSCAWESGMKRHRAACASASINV
The experiment in a line: In vitro ODC enzyme activity assay. In kind it is biochemical. The note with it: read-out: ODC biochemical inhibition % (50 μM). How it is done:
(§1) Our strategy to identify novel ODC inhibitors was to first screen new analogs for ODC inhibition at 50 μM using our in vitro enzyme activity assay and purified human ODC (Table 1). Those showing significant inhibition were then titrated to provide an ODC IC50 followed by cell-based screening against both cancer (Kelly neuroblastoma) and noncancerous (neonatal fibroblasts) cell lines. For the cancer cell line, higher cytotoxicity was desired and for the noncancerous cell line counter screen, lower cytotoxicity was desired.
In vitro ODC activity was measured using 100 ng of purified human ODC enzyme, as we previously described.[53],[99] ODC was incubated with increasing concentrations of inhibitors for 30 min at room temperature in a buffer containing 25 mM Tris and 0.1 mM EDTA. […] In the cell-based ODC activity assay, Kelly neuroblastoma cells that were treated with 500 μM inhibitors were harvested in a buffer containing 25 mM Tris HCl, 0.1 mM EDTA, and 2.5 mM DTT. […] For both the in vitro and cell-based assay, the microcentrifuge tubes were then placed into scintillation vials containing a piece of filter paper saturated with 200 μL of 0.1 M NaOH to capture the release of radiolabeled carbon dioxide. The samples were incubated in a 37 °C incubator while shaking for 30 min (in vitro) or 2 h (cell-based). The enzymatic reaction was stopped by adding 250 μL of 5 M sulfuric acid to each sample and incubating at 37 °C while shaking for 30 min. The microcentrifuge tubes were removed from the scintillation vials, and 5 mL of scintillation fluid was added. Disintegrations per minute (DPM) of each sample was measured using a TriCarb liquid scintillation counter (PerkinElmer). The specific ODC activity is expressed as nmol CO2/min/mg protein (in vitro) or pmol CO2/min/mg protein (cell-based). The individual ODC inhibitor IC50 values were determined using Graphpad Prism 8.

The subject of data set [2] is Kelly neuroblastoma cells. As to the kind of experiment: Sulforhodamine B (SRB) cytotoxicity assay, Kelly neuroblastoma cells. In kind it is cell-based. How it is done: as §1
(§2) Normal primary human neonatal fibroblast cells (ATCC) were maintained in DMEM medium (Gibco) supplemented with 10% heat-inactivated fetal bovine serum (Hyclone), penicillin (100 IU/mL), and streptomycin (100 μg/mL), nonessential amino acids (0.1 mM) and sodium pyruvate (1 mM). Kelly neuroblastoma cells (Sigma-Aldrich) were maintained in RPMI medium (Corning) supplemented with 10% heat-inactivated fetal bovine serum (Hyclone), penicillin (100 IU/mL), and streptomycin (100 μg/mL). Cell lines were routinely monitored for mycoplasma contamination using the MycoAlert PLUS Mycoplasma Detection Kit (Lonza).
(§3) The colorimetric sulforhodamine B (SRB) assay was used to measure cytotoxicity following treatment with ODC inhibitors. Briefly, Kelly neuroblastoma cells and normal primary human neonatal fibroblast cells were plated in transparent flat 96-well plates and allowed to attach overnight. Cells were treated with control or 500 μM ODC inhibitor for 72 h. Cells were then fixed with 10% TCA at 4 °C for 1 h, washed with deionized water, and dried at room temperature. Cells were stained with 100 μL of 0.4% SRB in 1% acetic acid for 20 min at room temperature, rinsed five times with 1% acetic acid and allowed to dry at room temperature. One hundred μL of 10 mM Tris–HCl pH 7.0 was added to each well, shaken for 10 min at room temperature and absorbance was read at 540 nm. Absorbance values were normalized relative to control readings and converted to percentage by multiplying by one hundred. The percent cytotoxicity was then determined by subtracting the relative percentage of the ODC inhibitor treated readings from the control which is 100%.
Background: The SRB assay estimates cell density from bound dye.

Data set [3] can be described thus: Sulforhodamine B (SRB) cytotoxicity assay, neonatal fibroblasts. In kind it is cell-based, human. The note with it: human, normal primary neonatal fibroblast cells; 72 hrs @500 µM; supplement csv. The procedure:
as §1, §2, §3

Data set [4] deals with normal primary human neonatal fibroblast cells. Described as above. The format is cell-based. The conditions noted are these: 500 μM. The procedure:
as §1, §2, §3

The subject of data set [5] is polyamine levels in Kelly neuroblastoma cells. As to the kind of experiment: Polyamine analysis (HPLC of dansylated polyamines). The format is cell-based. The conditions noted are these: 500 μM inhibitor. How it is done: Polyamines from Kelly neuroblastoma cells treated with 500 μM inhibitors were isolated, dansylated, and analyzed by HPLC. Briefly, polyamines were extracted and protonated in perchloric acid/sodium chloride buffer. To 100 μL of sample, 4.5 nmol of 1,7 diaminoheptane internal standard and 200 μL of 1 M sodium carbonate was added prior to dansylation with 400 μL of 5 mg/mL dansyl chloride (Sigma-Aldrich) for 60 min at 65 °C. One hundred μL of 1 M proline was then added to each reaction and incubated for 20 min at 65 °C. Polyamines were extracted from the mixture using methylene chloride. The methylene chloride was allowed to evaporate, the samples were resuspended in methanol and run through a C18 cleanup column. Samples were then analyzed using a Thermo Scientific/Dionex Ultimate 3000 HPLC, using a Syncronis C18 column (250 × 4.6 mm, […] pore size), and containing a fluorescence detector. The dansylated polyamine peaks were visualized by excitation at 340 nm and emission at 515 nm. The buffers used for elution of the polyamines were as follows: buffer A: 10 mM sodium heptanesulfonate/10% acetontrile at pH 3.4. Buffer B: 100% acetonitrile. The flow rate was 0.7 mL per minute. The column was equilibrated with 55% buffer B/45% buffer A prior to injection of the sample. Upon injection of the sample, elution of polyamines occurs in an isocratic solution of 55% buffer B/45% buffer A for 28 min. The solution was then slowly ramped to 95% buffer B/5% buffer A for 20 min. This gradient was held for 27 min to elute the spermine peak. The solution was then quickly dropped back to 55% buffer B/45% buffer A to re-equilibrate the column prior to the next sample being injected. Using the relative molar response derived from N-dansylated PA and 1,7 diaminoheptane standards, the amount of N-dansylated polyamines was calculated and normalized to total sample protein.

For data set [6] the following is noted: no reference printed for this property; cited from earlier work.
For data set [7] the following is noted: cited from earlier work.
On the set-up of data set [8]: method as in PMID 11004451. The note with it: due to an amino acid transporter; cited from earlier work.

The term inhibition denotes the share of the control response that was lost under treatment. As to `NCCC[C@](N)(C(=O)O)C(F)F` [DFMO, α-difluoromethylornithine], in data set [1], the inhibition at 50 µM was found to be 47%. The “activity against Kelly neuroblastoma cells (in words)” value in data set [2] (72 h, 500 μM) is “relatively moderate cytotoxic activity”. Also, the “Cell cytotoxicity (72 hr @ 500 μM) Kelly Neuroblastoma” value in data set [2] (72 hr, 500 μM, percent cytotoxicity) amounted to 26±9%. Moreover, the cytotoxicity at 500 µM in data set [2] (Kelly, 72 hrs @500 µM, supplement csv, read-out: Kelly Neuroblasoma Cells (72 hrs @500 µM) %cytotoxicity) is 26%. This molecule registered a cytotoxicity at 72 h, 500 µM in data set [3] of 41%. The “cytotoxic activity against neonatal fibroblasts (in words)” value in data set [4] (72 h) is recorded as “greater cytotoxic activity”. Besides, in data set [4] (72 hr, percent cytotoxicity), the “Cell cytotoxicity (72 hr @ 500 μM) Neonatal Fibroblasts” value is reported as 41±12%. Besides, in data set [5] (Control = 2.57+0.47), the “Kelly Treated Neuroblastoma Cells (Total Spm)” value is listed as 3.52+0.35. Further, the “Kelly Treated Neuroblastoma Cells (Spd)” value in data set [5] (Control = 8.52+1.63) is recorded as 1.99+1.06. Moreover, in data set [5] (Control = 9.71+1.31), the “Kelly Treated Neuroblastoma Cells (Total Put)” value was 0. Moreover, the “Kelly Treated Neuroblastoma Cells (Total PA)” value in data set [5] (Control = 20.81 +2.67) is reported as 5.51+1.06. Moreover, the “putrescine level (in words)” value in data set [5] (Kelly neuroblastoma cells, Figure 6B) is reported as “undetected”. For the same molecule, the “spermidine and spermine levels (in words)” value in data set [5] (Kelly neuroblastoma cells, relative to APA) is “greatest reductions”. Besides, the “water solubility (in words)” value in data set [6] is “water-soluble”. Moreover, in data set [7], the “clearance (in words)” value is “rapid clearance”. Moreover, the “permeability (in words)” value in data set [8] is on record as “permeable”.

Values taken from article PMC11912471 (Journal of Medicinal Chemistry, 2025).
